Read-outs that look alike come from different tables or passages of the source.
Legend:
[1] = molecular target: PI3Kα (Homo sapiens (Human), UniProt P42336); test: Inhibition of PI3Kα efficacy assay (ADP-Glo kinase assay); assay type: biochemical; settings: read-out: PI3Kα inhibitory activity (IC50)
Outline: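 ADP-Glo luminescent detection of ADP from PI3Kα acting on PI substrate with ATP, 60 min at RT; compounds in 8-point five-fold serial dilution from 2 mM DMSO stock. IC50 from four-parameter variable-slope fit.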

[2] = molecular target: PI3Kδ (Homo sapiens (Human), UniProt O00329); test: Inhibition of PI3Kδ efficacy assay (ADP-Glo kinase assay); assay type: biochemical; settings: read-out: PI3Kδ inhibitory activity (IC50)
Outline: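 Luminescent ADP-Glo readout of PI3Kδ: after a 60 min RT reaction with PI/ATP substrate, ATP depletion (40 min) and ADP detection (40 min) steps followed. Compounds tested as eight five-fold serial dilutions; inhibition rates fitted to log(inhibitor) vs. response, variable slope, for IC50.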

[3] = molecular target: KRAS^G12C-SOS1 (Homo sapiens (Human), UniProt P01116, G12C); test: HTRF KRAS G12C/SOS1 binding assay; settings: Table 5
Protocol: Initially, a 2 mM stock solution of the test compound (dissolved in DMSO) was serially diluted in five-fold concentrations using DMSO to obtain eight working solutions 1 (200×). Subsequently, each of the eight working solutions 1 was further diluted in a 20-fold gradient by adding 5 μL into 95 μL of Diluent buffer, mixed completely with vortex mixer, resulting in eight working solutions 2 (10×). […] Subsequently, 5 μL of Anti-tag 1-Tb^3+ stock solution and 5 μL of Anti-tag2-XL665 were added to each well, mixed, and incubated at 4° C. for 3 hours. Remove the plate and read on an HTRF® compatible reader, with the excitation light wavelength set at 337 nm and readings recorded at 620 nm and 665 nm. The data results were presented as the ratio of the 665 nm signal value to the 620 nm signal value for each well, calculated as follows: […]. The inhibition rate was calculated using the following formula: […]
Data were analyzed using GraphPad Prism with log (inhibitor) vs. response-Variable Slope (four parameters) fitting calculations for IC50 values.

[4] = tested on: MIA PaCa-2 cells (KRAS G12C mutant); test: MIA PaCa-2 cell anti-proliferation (CellTiter-Glo); assay type: cell-based; settings: Homo sapiens, 72 h; MIA Paca-2 cells, 3 days, Table 7; read-out: MIA PaCa-2 (IC50)
Outline: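 Viable-cell luminescence (CellTiter-Glo, ≥30 min at 25 °C) measured after a 3-day, 37 °C exposure to compounds at 9 points, 4-fold spaced, in DMEM containing 10% FBS plus 2.5% horse serum. IC50 derived versus no-inhibitor wells.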

[5] = tested on: NCI-H358-AMGR drug-resistant cell line; test: NCI-H358-AMGR drug-resistant cell proliferation inhibitory activity test; assay type: cell-based; settings: 72 h; NCI-H358-AMGR drug-resistant cells, 3 days incubation, CellTiter-Glo
Protocol: Test Example 6t Generation of NCI-H358-AMGR Drug-Resistant Cell Line
(§1) NCI-H358 cells were seeded and cultured at 50 to 70% confluence in six-well plate with RPMI-640 (10% FBS) medium at 37° C. with 5%4 CO2. AMG510 was added for induction at three starting concentrations of 1 nM, 10 nM and 50 nM, and the medium containing the same concentration of AMG510 was replaced every 3 days. Cells were passaged once they reached confluence. After every, two passages at a given concentration of drug, the concentration was increased in a 3-old increment until final concentrations of 1 μM for AMG510 was achieved.
(§2) NCI-H358-AMGR cells in logarithmic growth phase were collected and seeded into a clear-bottom 96-well plate at a density of 4×10^3 cells per well in 80 μL of medium, and then incubated overnight at 37° C. with 5% CO2. The compounds were serially diluted 5-fold in DMSO to obtain 8 concentrations, and then further diluted with RPMI-640) (10% FBS) cell culture medium to obtain the working solutions (5×), 20 μL of each working solution was added to the cell culture supernatant in each well, and the plate was further incubated for 3 days at 37° C. with 5% CO2. The plate was then equilibrated with CellTiter-Glo® reagent at room temperature (25° C.) for 10-30 minutes. After aspirating 50 μL of the medium, 50 μL of CellTiter-Glo®, reagent was added. The cells were thoroughly mixed with the CellTiter-Glo®, reagent using a microplate shaker for 2 minutes, and then incubated at room temperature for 10 minutes. The %-well plate was placed in a multi-mode microplate reader to record the luminescence values (RLU).
(§3) The inhibitory rate was calculated using the following formula: […]
Data were analyzed using GraphPad Prism for IC50 values (Note: The negative control refers to the group without inhibitor).

[6] = tested on: MIA PaCa-2-AMGR drug-resistant cell line; test: MIA PaCa-2-AMGR drug-resistant cell proliferation inhibitory activity test; assay type: cell-based; settings: 72 h, MIA PaCa-2-AMGR drug-resistant cells, 3 days incubation, CellTiter-Glo
Protocol: Test Example 7: Generation of MIA PaCa-2-AMGR drug-resistant cell line
as §1, with “MIA PaCa-2” for “NCI-H358”, “DMEM” for “RPMI-640”, “FBS+2.5% horse serum)” for “FBS)”, “5%” for “5%4”, “every” for “every,”, “3-fold” for “3-old”
as §2, with “MIA PaCa-2-AMGR” for “NCI-H358-AMGR”, “DMEM” for “RPMI-640)”, “FBS+2.5% horse serum)” for “FBS)”, “CellTiter-Glo®” for “CellTiter-Glo®,”, “96-well” for “%-well”
as §3
Data were analyzed using GraphPad Prism for IC50 values (Note: The negative control refers to the group without inhibitor) The data were presented m Table 9

[7] = tested on: NCI-H358 cells (KRAS G12C mutant); test: NCI-H358 cell proliferation inhibition (CellTiter-Glo); assay type: cell-based; settings: Homo sapiens, NCI-H358, 72 h; H358 cells (G12C mutation), 3 days, Table 6; read-out: NCI-H358 (IC50)

PI3Kα, sequence (P42336 whole entry): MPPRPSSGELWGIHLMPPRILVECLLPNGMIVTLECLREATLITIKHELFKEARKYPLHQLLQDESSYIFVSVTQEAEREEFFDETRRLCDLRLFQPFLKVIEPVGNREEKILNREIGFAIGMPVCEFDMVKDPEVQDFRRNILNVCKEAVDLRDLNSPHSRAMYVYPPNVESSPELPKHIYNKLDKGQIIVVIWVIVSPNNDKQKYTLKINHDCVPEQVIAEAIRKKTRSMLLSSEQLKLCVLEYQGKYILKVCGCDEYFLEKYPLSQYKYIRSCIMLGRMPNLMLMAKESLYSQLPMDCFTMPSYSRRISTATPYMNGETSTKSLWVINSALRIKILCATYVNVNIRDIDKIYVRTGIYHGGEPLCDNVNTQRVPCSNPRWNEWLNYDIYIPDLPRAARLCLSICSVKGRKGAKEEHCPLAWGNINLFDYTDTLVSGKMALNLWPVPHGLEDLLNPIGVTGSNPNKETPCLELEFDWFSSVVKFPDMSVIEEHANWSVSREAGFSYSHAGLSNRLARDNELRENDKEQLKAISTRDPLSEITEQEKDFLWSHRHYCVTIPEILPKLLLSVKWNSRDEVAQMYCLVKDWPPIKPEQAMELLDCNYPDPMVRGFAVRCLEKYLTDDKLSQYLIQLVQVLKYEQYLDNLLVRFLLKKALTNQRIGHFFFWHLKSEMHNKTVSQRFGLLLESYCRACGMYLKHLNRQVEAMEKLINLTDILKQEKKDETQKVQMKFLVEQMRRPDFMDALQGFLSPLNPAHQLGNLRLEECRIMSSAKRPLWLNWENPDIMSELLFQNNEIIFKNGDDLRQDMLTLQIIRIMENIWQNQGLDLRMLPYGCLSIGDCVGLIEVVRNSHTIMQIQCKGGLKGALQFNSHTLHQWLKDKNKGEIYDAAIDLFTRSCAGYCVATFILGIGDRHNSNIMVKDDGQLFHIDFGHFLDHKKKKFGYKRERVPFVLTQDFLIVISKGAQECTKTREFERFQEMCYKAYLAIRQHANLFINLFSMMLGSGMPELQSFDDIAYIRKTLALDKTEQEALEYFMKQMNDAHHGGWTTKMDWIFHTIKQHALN
PI3Kα, sequence (P27986 whole entry partner): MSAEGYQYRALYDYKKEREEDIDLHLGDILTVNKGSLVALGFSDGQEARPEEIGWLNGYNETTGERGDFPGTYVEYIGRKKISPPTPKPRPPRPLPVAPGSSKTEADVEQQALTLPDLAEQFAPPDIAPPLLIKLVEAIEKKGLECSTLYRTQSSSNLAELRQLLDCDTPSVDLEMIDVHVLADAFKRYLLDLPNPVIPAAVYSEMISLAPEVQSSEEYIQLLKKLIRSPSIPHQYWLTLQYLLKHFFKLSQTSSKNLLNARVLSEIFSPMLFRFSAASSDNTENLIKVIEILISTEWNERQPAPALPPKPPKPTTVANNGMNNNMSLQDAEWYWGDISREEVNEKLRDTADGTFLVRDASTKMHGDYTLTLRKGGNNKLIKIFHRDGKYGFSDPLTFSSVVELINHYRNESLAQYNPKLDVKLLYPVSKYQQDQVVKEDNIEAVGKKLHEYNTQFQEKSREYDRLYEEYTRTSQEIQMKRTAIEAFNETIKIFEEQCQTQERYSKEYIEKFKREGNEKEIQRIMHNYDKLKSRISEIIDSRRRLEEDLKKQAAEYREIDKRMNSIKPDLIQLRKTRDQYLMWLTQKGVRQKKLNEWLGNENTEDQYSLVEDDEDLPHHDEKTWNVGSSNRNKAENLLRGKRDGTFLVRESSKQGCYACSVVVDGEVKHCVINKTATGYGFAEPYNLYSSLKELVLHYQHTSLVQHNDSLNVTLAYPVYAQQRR
KRAS^G12C-SOS1, sequence (P01116-2 other isoform, or with tags, fused parts or gaps G12C): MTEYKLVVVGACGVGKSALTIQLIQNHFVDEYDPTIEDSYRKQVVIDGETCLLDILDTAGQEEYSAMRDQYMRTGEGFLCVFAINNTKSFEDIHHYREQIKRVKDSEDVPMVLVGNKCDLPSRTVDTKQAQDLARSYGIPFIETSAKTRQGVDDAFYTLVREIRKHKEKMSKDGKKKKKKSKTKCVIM
PI3Kδ, sequence (O00329 whole entry): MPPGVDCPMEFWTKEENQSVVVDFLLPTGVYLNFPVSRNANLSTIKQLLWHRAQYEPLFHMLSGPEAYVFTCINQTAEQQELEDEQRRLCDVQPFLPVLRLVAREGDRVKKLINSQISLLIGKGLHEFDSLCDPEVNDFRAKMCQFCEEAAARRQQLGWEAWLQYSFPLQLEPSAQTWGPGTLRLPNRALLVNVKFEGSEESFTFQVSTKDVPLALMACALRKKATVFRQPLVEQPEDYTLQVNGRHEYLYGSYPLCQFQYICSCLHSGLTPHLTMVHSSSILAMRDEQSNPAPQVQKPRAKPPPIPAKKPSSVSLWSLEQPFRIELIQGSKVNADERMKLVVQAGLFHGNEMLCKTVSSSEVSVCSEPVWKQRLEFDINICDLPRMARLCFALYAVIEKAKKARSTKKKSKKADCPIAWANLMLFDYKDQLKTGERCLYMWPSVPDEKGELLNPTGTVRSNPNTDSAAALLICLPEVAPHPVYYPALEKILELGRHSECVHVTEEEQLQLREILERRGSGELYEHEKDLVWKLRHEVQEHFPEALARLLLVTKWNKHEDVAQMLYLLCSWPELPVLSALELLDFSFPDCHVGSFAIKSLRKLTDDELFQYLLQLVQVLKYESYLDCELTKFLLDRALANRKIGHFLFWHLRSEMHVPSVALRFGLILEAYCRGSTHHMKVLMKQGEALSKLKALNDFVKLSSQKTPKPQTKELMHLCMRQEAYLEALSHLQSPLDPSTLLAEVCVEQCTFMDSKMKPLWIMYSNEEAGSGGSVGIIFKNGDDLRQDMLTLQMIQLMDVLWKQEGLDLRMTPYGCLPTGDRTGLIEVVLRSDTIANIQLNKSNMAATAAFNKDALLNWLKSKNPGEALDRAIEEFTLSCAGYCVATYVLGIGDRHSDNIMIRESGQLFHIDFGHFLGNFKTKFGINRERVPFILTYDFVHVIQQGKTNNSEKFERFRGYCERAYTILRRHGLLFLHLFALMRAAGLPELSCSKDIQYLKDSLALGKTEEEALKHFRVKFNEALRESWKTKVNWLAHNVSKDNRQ
PI3Kδ, sequence (P27986 whole entry partner): as the sequence (P27986 whole entry partner) above

`COc1ncc(-c2ccc3ncnc(N4CCN(C(=O)/C=C/C(C)=O)CC4)c3c2)cc1NS(=O)(=O)c1ccc(Cl)s1` [Example 38, (E)-5-chloro-N-(2-methoxy-5-(4-(4-(4-oxopent-2-enoyl)piperazin-1-yl)quinazolin-6-yl)pyridin-3-yl)thiophene-2-sulfonamide] gave an IC50 ([1]; Table 1) of 1.5 nM, an IC50 ([2]; Table 1) of 14.7 nM and an IC50 [3] of 807 nM. The IC50 [4] was 59.8 nM, the IC50 [5] was 51.1 nM and the IC50 [6] was 216 nM.

In the case of `COc1ncc(-c2ccc3ncnc(N4CC5CCC(C4)N5C(=O)/C=C/C(C)=O)c3c2)cc1NS(=O)(=O)c1ccc(F)cc1F` [Example 58, 2,4-difluoro-N-(2-methoxy-5-(4-(8-((E)-4-oxopent-2-enoyl)-3,8-diazabicyclo[3.2.1]octan-3-yl)quinazolin-6-yl)pyridin-3-yl)benzenesulfon-amide], the IC50 ([1]; Table 2) is reported as 3.6 nM, the IC50 ([2]; Table 2) is reported as 8.3 nM and the IC50 [3] is reported as 278 nM. It also gave an IC50 [7] of 18.1 nM, an IC50 [4] of 26.2 nM and an IC50 [5] of 100 nM.

Work on `CC(=O)/C=C/C(=O)N1CCN(c2ncnc3ccc(-c4cnc(Cl)c(NS(=O)(=O)c5c(F)cccc5F)c4)cc23)CC1` [Example 84, (E)-N-(2-chloro-5-(4-(4-(4-oxopent-2-enoyl)piperazin-1-yl)quinazolin-6-yl)pyridin-3-yl)-2,6-difluorobenzenesulfonamide] yielded an IC50 ([1]; Table 2) of 0.83 nM, an IC50 ([2]; Table 2) of 7.6 nM and an IC50 [3] of 268 nM. It also gave an IC50 [7] of 13 nM, an IC50 [4] of 245 nM and an IC50 [5] of 639 nM.

`CC(=O)/C=C/C(=O)N1CCN(c2ncnc3ccc(-c4cnc(Cl)c(NS(=O)(=O)c5c(F)cccc5F)c4)cc23)[C@@H](C)C1` [Example 88, (S,E)-N-(2-chloro-5-(4-(2-methyl-4-(4-oxopent-2-enoyl)piperazin-1-yl)quinazolin-6-yl)pyridin-3-yl)-2,6-difluorobenzenesulfonamide] was tested, and the IC50 ([1]; Table 2) was 2.6 nM, the IC50 ([2]; Table 2) was 11.8 nM and the IC50 [3] was 219 nM. For the same molecule, the IC50 [7] was 80.9 nM and the IC50 [4] was 333 nM.

`CC(=O)/C=C/C(=O)N1CCN(c2ncnc3ccc(-c4cnc(Cl)c(NS(=O)(=O)c5c(F)cc(F)cc5F)c4)cc23)CC1` [Example 89, (E)-N-(2-chloro-5-(4-(4-(4-oxopent-2-enoyl)piperazin-1-yl)quinazolin-6-yl)pyridin-3-yl)-2,4,6-trifluorobenzenesulfonamide] was tested, and the IC50 ([1]; Table 2) was 2.2 nM, the IC50 ([2]; Table 2) was 8.6 nM and the IC50 [3] was 404 nM. The IC50 [7] was 81.4 nM and the IC50 [4] was 511 nM.

`COc1ncc(-c2ccc3ncnc(N4CCC5(CN(C(=O)/C=C/C(C)=O)C5)C4)c3c2)cc1NS(=O)(=O)c1c(F)cc(F)cc1F` [Example 97, (E)-2,4,6-trifluoro-N-(2-methoxy-5-(4-(2-(4-oxopent-2-enoyl)-2,6-diazaspiro[3.4]octan-6-yl)quinazolin-6-yl)pyridin-3-yl)benzenesulfonamide] showed an IC50 ([1]; Table 2) of 1.4 nM, an IC50 ([2]; Table 2) of 14.1 nM and an IC50 [3] of 101 nM. It also gave an IC50 [7] of 13.7 nM and an IC50 [4] of 109 nM.

`COc1ncc(-c2ccc3ncnc(N4CCN(C(=O)/C=C/C(C)=O)CC4)c3c2)cc1NS(=O)(=O)c1ccncc1F` [Example 103, (E)-3-fluoro-N-(2-methoxy-5-(4-(4-(4-oxopent-2-enoyl)piperazin-1-yl)quinazolin-6-yl)pyridin-3-yl)pyridine-4-sulfonamide] was tested, and the IC50 ([1]; Table 2) was 0.95 nM, the IC50 ([2]; Table 2) was 32.2 nM and the IC50 [3] was 203 nM. It also gave an IC50 [7] of 83 nM and an IC50 [4] of 344 nM.

`COc1ncc(-c2ccc3ncnc(N4CCN(C(=O)/C=C/C(C)=O)CC4)c3c2)cc1NS(=O)(=O)c1cc(Cl)cn1C` [Example 104, (E)-4-Chloro-N-(2-methoxy-5-(4-(4-(4-oxopent-2-enoyl)piperazin-1-yl)quinazoline-6-yl)pyridin-3-yl)-1-methyl-1H-pyrrole-2-sulfonamide] gave an IC50 ([1]; Table 2) of 3.8 nM, an IC50 ([2]; Table 2) of 32.2 nM and an IC50 [3] of 169 nM. The IC50 [7] was 74.2 nM and the IC50 [4] was 139 nM.

For `COc1ncc(-c2ccc3ncnc(N4CCN(C(=O)/C=C/C(C)=O)CC4)c3n2)cc1NS(=O)(=O)c1ccc(F)cc1F` [Example 132, (E)-2,4-difluoro-N-(2-methoxy-5-(4-(4-(4-oxopent-2-enoyl)piperazin-1-yl)pyrido[3,2-d]pyrimidin-6-yl)pyridin-3-yl)benzenesulfonamide], the IC50 ([1]; Table 3) was 3.6 nM, the IC50 ([2]; Table 3) was 29.2 nM and the IC50 [3] was 318 nM. For the same molecule, the IC50 [7] was 4 nM and the IC50 [4] was 16.1 nM.

For `COc1ncc(-c2ccc3ncnc(N4CCN(C(=O)/C=C/C(C)=O)CC4)c3n2)cc1NS(=O)(=O)c1ccccc1F` [Example 133, (E)-2-fluoro-N-(2-methoxy-5-(4-(4-(4-oxopent-2-enoyl)piperazin-1-yl)pyrido[3,2-d]pyrimidin-6-yl)pyridin-3-yl)benzenesulfonamide], the IC50 ([1]; Table 3) was 5.4 nM, the IC50 ([2]; Table 3) was 20.4 nM and the IC50 [3] was 251 nM. For the same molecule, the IC50 [7] was 4.1 nM and the IC50 [4] was 12 nM.

Work on `CC(=O)/C=C/C(=O)N1CCN(c2ncnc3ccc(-c4cnc(N(C)C)c(NS(=O)(=O)c5ccc(F)cc5F)c4)cc23)CC1` [Example 195, (E)-N-(2-(dimethylamino)-5-(4-(4-(4-oxopent-2-enoyl)piperazin-1-yl)quinazolin-6-yl)pyridin-3-yl)-2,4-difluorobenzenesulfonamide] yielded an IC50 ([1]; Table 4) of 2.4 nM, an IC50 ([2]; Table 4) of 13.5 nM and an IC50 [3] of 158 nM. For the same molecule, the IC50 [7] was 43.9 nM, the IC50 [4] was 93.3 nM and the IC50 [5] was 92.3 nM.
